Source: patent US20220117867A1, “ANTIMICROBIAL ACTIVITY OF FATTY ACID ESTERS AND COMBINATIONS THEREOF” (SYMRISE AG, priority 2019, published 2022)
≈ marks a conversion by molar mass, not a printed value. Values belong to the compound of their own block, whether it stands above or below them.

How the values were obtained:
Format in all cases: cell-based
Epidermophyton floccosum = assay: Minimum Inhibitory Concentration (MIC) Method B, DIN 58940; Synergy Index according to Kull; conditions: single substance
Protocol: (§1) B) Minimum Inhibitory Concentration (MIC) Method B
(§2) 5 ml of the appropriate dilution of the test product is mixed with 0.1 ml of test suspension and mixed well. After the required action times, the mixture was mixed again. Each 0.1 ml were removed and placed in 5 ml of CSL-bouillon without neutralizing agents.
(§3) In order to calculate the synergy index with MIC values, the Kull equation (I) was used as follows:
(§4) SI=(MICmixture×PA)/MICA+(MICmixture×PB)/MICB (I)
SI is the Synergy Index according to Kull
MICA is the MIC value for Substance A
MICB is the MIC value for Substance B
MICmixture is the MIC value for the mixture of substances A and B
PA is the proportion of the substance A in the mixture
PB is the proportion of the substance B in the mixture

Corynebacterium xerosis [1] = assay: as above; conditions: Method B (Examples 3, 5, 6), C. xerosis, single substance
Protocol: as §1, §2, §3, §4

Corynebacterium xerosis [2] = assay: Minimum Inhibitory Concentration (MIC) Method A
Protocol: A) Minimum Inhibitory Concentration (MIC) Method A The MIC test is a test on growth inhibition. Estimation of Minimum Inhibitory Concentration (MIC) is executed in 96 well plates. Through the comparison of bacterial growth curves with positive and negative controls via optical density (OD), different concentrations of given test substances are evaluated. Bacteria are cultivated under adjusted conditions based on information of the German Collection of Microorganisms and Cell Cultures (DSMZ) and stored in 50% Glycerol prior to use. Afterwards, the following method was applied: Adding growth medium (according to microorganism) to each well of the microplate. Adding the test-substances in different concentrations, positive controls (water controls only with medium) and negative controls (benchmarks according to organism). Adding the microorganism in a concentration of 10^6 CFU/ml (CFU=colony forming units). Incubation of the microplates at appropriate conditions. Aerobic microorganism: optical density is continuously measured (microplate reader) during incubation. Anaerobic microorganism: incubation in an anaerobic chamber, measurement of the optical density at the end of the incubation, comparison of the results with positive and negative controls. According to resulting growth curves, substance concentrations are labelled either as inhibiting or normal growth and MIC is defined as the lowest concentration where a clear inhibition is visible. Experiments at concentration limits (highest concentration labelled as growth and lowest concentration labelled as inhibiting) are performed at least twice.

Aspergillus brasiliensis = assay: Minimum Inhibitory Concentration (MIC) Method A; conditions: read-out: MIC
Protocol: (§5) A) Minimum Inhibitory Concentration (MIC) Method A
(§6) The MIC test is a test on growth inhibition. Estimation of Minimum Inhibitory Concentration (MIC) is executed in 96 well plates. Through the comparison of bacterial growth curves with positive and negative controls via optical density (OD), different concentrations of given test substances are evaluated.
(§7) Bacteria are cultivated under adjusted conditions based on information of the German Collection of Microorganisms and Cell Cultures (DSMZ) and stored in 50% Glycerol prior to use. Afterwards, the following method was applied:
(§8) Adding growth medium (according to microorganism) to each well of the microplate.
(§9) Adding the test-substances in different concentrations, positive controls (water controls only with medium) and negative controls (benchmarks according to organism).
(§10) Adding the microorganism in a concentration of 10^6 CFU/ml (CFU=colony forming units). Incubation of the microplates at appropriate conditions.
(§11) Aerobic microorganism: optical density is continuously measured (microplate reader) during incubation.
(§12) According to resulting growth curves, substance concentrations are labelled either as inhibiting or normal growth and MIC is defined as the lowest concentration where a clear inhibition is visible. Experiments at concentration limits (highest concentration labelled as growth and lowest concentration labelled as inhibiting) are performed at least twice.

Staphylococcus aureus = assay: Minimum Inhibitory Concentration (MIC) Method A; conditions: read-out: MIC
Protocol: as §5, §6, §7, §8, §9, §10, §11, §12

[3] = tested on: Staphylococcus epidermidis; assay: Minimum Inhibitory Concentration (MIC) Method A; conditions: read-out: MIC
Protocol: as §5, §6, §7, §8, §9, §10, §11, §12

MIC (Epidermophyton floccosum): 10000 mg/L
Compound: CCCCC(O)CO (centres unmarked) [1,2 Hexanediol]

MIC (Corynebacterium xerosis [1]): 16 mg/L
Compound: CC(C)=CCCC(C)=CCCC(C)=CCO [Farnesol]

MIC (Corynebacterium xerosis [2]): low
MIC (Corynebacterium xerosis [2]; read-out: MIC): 250 mg/L (≈ 968 µM)
Compound: C=CCCCCCCCCC(=O)OCC(O)CO (centres unmarked) [glyceryl monoundecylenate]

MIC (Aspergillus brasiliensis): 500 mg/L (≈ 2060 µM)
MIC (Staphylococcus aureus): 500 mg/L (≈ 2060 µM)
MIC [3]: 64 mg/L (≈ 264 µM)
MIC (Corynebacterium xerosis [2]; read-out: MIC): 250 mg/L (≈ 1030 µM)
Compound: C=CCCCCCCCCC(=O)OCCCO [3-hydroxypropyl undecylenate]
